The target in test [1] is Mitogen-activated protein kinase kinase kinase kinase 2 (Homo sapiens) (UniProt Q12851). To be noted: at 1 µM.
Test [2] concerns the target Hepatocyte growth factor receptor (Homo sapiens) (UniProt P08581). The following applies: at 1 µM.
The target of test [3] is T1, Dual specificity mitogen-activated protein kinase kinase 5 (Homo sapiens) (UniProt Q13163).
T1 sequence (whole entry): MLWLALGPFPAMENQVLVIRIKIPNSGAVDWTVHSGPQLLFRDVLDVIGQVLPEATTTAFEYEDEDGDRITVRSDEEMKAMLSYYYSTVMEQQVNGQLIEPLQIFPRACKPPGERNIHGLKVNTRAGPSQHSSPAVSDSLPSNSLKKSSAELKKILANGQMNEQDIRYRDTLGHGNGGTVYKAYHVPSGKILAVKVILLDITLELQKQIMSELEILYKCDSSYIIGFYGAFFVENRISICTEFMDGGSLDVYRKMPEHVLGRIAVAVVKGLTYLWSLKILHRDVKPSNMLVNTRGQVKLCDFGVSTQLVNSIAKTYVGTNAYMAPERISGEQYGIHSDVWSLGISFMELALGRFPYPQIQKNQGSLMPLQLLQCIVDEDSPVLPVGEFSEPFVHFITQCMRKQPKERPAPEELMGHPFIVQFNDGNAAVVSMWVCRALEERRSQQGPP
Description: Selectivity interaction (ScanMAX (DiscoverX)) EUB0000700a MAP2K5. The following applies: at 10 µM.

For test [4], the target named is T2, Mitogen-activated protein kinase kinase kinase 19 (Homo sapiens) (UniProt Q56UN5).
T2 sequence (whole entry): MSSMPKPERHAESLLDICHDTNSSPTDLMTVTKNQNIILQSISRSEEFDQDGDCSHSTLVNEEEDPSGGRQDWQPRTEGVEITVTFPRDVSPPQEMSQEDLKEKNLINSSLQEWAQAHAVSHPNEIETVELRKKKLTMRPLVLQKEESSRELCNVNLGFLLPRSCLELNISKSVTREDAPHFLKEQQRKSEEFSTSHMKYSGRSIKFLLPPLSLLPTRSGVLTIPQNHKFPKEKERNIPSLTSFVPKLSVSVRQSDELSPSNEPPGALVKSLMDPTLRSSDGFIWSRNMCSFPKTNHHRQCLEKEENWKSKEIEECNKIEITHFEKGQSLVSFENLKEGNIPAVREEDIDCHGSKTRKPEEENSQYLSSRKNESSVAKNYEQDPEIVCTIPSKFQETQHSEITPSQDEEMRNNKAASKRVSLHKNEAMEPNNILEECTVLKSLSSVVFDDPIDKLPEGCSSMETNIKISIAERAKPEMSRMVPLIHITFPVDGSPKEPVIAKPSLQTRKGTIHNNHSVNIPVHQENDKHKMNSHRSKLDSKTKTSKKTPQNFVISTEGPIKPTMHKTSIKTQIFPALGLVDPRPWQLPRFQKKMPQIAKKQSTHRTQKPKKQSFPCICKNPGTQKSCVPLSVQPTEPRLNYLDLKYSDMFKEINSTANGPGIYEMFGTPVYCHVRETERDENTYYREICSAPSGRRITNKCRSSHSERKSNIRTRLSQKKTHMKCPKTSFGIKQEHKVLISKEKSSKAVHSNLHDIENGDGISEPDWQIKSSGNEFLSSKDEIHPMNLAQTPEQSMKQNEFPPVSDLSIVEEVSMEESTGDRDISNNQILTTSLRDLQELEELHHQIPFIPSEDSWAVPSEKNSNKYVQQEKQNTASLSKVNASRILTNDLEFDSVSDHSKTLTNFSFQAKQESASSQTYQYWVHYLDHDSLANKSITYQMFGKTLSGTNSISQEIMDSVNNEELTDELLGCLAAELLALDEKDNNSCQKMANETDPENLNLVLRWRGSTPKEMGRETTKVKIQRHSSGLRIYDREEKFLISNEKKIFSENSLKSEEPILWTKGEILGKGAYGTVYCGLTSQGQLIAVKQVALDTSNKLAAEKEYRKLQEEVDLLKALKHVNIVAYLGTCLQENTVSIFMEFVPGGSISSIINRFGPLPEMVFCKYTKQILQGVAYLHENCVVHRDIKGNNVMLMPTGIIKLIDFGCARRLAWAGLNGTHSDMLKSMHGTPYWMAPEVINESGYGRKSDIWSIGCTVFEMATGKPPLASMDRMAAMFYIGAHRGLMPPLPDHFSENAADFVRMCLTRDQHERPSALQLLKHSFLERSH
The experiment in a line: Selectivity interaction (KinomeScan (DiscoverX)) EUB0000701a MAP3K19. To be noted: at 1 µM.

Test [5] addresses Inhibitor of nuclear factor kappa-B kinase subunit epsilon (Homo sapiens) (UniProt Q14164). The following applies: at 1 µM.
Test [6] has as its target Tyrosine-protein kinase ABL1 (Homo sapiens, UniProt P00519). Description: Selectivity interaction (KinomeScan (DiscoverX)) EUB0000701a ABL1. The following applies: at 1 µM.
The subject of test [7] is Receptor-type tyrosine-protein kinase FLT3 (Homo sapiens), P36888 [UNDEFINED MUTATION]. The experiment in a line: (§1) Selectivity interaction (KinomeScan (DiscoverX)) EUB0000701a FLT3. To be noted: at 1 µM.
Test [8] relates to T3, Receptor-type tyrosine-protein kinase FLT3 (Homo sapiens), P36888 [D835V].
T3 sequence (whole entry): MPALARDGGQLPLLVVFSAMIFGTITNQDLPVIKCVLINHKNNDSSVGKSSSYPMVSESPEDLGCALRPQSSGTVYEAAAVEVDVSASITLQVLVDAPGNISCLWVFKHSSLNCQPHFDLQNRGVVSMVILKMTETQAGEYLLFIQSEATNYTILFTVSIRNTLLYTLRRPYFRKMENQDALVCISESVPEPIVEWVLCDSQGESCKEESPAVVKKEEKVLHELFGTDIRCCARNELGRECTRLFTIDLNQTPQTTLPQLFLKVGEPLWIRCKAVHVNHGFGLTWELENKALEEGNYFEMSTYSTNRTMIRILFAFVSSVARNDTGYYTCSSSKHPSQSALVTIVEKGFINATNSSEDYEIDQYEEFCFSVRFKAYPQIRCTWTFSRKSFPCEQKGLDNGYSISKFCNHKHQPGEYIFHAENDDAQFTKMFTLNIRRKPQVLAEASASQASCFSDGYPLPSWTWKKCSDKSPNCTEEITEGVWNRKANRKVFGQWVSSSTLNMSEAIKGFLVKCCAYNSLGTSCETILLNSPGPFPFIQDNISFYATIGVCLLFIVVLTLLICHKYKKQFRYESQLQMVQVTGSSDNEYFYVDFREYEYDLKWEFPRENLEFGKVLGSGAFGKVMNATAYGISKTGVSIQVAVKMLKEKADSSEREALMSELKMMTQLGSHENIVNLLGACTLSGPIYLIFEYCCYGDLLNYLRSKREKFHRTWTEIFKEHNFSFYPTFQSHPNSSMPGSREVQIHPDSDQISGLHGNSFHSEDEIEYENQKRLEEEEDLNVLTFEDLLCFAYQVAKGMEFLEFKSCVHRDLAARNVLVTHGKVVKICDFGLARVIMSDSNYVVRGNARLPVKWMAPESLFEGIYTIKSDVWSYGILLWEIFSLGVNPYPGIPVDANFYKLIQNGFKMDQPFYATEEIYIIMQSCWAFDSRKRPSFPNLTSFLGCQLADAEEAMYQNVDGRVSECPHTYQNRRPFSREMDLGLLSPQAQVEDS
Described as §1. To be noted: at 1 µM.

Test [9] concerns the target T1, Dual specificity mitogen-activated protein kinase kinase 5 (Homo sapiens). The experiment in a line: Selectivity interaction (KinomeScan (DiscoverX)) EUB0000701a MAP2K5. The following applies: at 1 µM.
Test [10] deals with T4, Chromatin remodeling regulator CECR2 (Homo sapiens, UniProt Q9BXF3). Description: Selectivity interaction (Bromoscan (DiscoverX, BromoKdELECT)) EUB0000004c CECR2. To be noted: at 10 µM.
T4 sequence (Q9BXF3 whole entry, looked up): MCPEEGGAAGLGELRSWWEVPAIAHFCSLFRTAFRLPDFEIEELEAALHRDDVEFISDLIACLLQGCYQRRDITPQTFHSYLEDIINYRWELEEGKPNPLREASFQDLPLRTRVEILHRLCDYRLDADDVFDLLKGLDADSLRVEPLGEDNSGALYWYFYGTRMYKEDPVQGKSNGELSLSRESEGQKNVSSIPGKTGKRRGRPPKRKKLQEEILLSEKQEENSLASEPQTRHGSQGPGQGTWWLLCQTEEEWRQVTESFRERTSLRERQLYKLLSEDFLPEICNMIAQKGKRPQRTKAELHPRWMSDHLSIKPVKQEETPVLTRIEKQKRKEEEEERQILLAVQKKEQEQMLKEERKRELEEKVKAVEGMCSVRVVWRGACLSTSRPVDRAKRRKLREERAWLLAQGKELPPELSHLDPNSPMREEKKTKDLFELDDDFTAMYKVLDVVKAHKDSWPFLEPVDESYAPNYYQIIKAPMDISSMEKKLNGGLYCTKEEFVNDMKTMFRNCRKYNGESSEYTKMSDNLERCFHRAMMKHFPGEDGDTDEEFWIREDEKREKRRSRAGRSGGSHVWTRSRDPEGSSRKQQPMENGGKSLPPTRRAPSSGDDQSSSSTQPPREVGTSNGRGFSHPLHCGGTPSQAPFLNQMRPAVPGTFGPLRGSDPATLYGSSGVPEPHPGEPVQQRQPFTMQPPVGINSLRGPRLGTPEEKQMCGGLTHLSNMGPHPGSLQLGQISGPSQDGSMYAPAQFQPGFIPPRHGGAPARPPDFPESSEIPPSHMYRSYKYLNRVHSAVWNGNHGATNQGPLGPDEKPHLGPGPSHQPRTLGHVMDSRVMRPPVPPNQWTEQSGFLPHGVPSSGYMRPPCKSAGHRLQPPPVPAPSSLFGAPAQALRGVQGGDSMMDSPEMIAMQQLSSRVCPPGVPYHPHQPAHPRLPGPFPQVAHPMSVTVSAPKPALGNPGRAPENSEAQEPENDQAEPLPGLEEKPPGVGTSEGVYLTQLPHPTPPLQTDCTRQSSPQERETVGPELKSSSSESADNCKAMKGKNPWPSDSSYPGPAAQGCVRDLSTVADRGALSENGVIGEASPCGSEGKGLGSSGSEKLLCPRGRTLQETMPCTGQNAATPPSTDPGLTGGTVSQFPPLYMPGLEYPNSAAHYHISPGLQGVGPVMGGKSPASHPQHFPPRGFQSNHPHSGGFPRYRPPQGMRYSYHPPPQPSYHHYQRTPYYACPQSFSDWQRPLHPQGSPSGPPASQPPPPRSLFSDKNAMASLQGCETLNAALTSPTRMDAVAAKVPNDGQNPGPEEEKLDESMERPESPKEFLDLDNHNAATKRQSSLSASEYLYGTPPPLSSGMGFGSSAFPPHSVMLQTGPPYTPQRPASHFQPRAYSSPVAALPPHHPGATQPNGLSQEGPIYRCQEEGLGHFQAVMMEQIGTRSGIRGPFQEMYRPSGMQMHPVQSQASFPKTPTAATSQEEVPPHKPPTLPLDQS
For test [11], the target named is CREB-binding protein (Homo sapiens, UniProt Q92793). Description: Selectivity interaction (Bromoscan (DiscoverX, BromoKdELECT)) EUB0000004c CREBBP. To be noted: at 10 µM.
Test [12] has as its target T5, Bromodomain-containing protein 7 (Homo sapiens) (UniProt Q9NPI1).
T5 sequence (whole entry): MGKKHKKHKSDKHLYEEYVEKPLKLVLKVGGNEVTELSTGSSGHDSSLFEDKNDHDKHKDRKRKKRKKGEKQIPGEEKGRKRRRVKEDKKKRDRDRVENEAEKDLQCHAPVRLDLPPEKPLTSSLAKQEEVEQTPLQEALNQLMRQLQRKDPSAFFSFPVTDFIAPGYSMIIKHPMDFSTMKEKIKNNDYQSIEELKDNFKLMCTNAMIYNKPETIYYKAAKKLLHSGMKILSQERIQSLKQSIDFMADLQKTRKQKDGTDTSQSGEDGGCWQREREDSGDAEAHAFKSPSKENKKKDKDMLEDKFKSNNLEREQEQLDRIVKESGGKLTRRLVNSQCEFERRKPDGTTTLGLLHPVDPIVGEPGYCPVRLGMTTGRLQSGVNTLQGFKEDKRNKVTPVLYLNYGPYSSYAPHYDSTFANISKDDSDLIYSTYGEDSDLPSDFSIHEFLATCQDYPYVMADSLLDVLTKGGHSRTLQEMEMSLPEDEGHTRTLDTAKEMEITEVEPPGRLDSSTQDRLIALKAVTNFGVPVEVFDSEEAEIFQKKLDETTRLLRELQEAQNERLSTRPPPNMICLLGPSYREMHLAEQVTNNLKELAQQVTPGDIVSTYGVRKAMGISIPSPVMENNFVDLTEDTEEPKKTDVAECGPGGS
The experiment in a line: Selectivity interaction (Bromodomain panel (DSF assay)) EUB0000004c BRD7. In general terms: DSF heats the sample and reads unfolding from a dye or from intrinsic fluorescence.

Test [13] addresses T4, Chromatin remodeling regulator CECR2. The experiment in a line: Selectivity interaction (Bromodomain panel (DSF assay)) EUB0000004c CECR2.
For test [14], the target named is Transcription initiation factor TFIID subunit 1 (Homo sapiens, UniProt P21675). The experiment in a line: Selectivity interaction (Bromoscan (DiscoverX, BromoKdELECT)) EUB0000004c TAF1. The following applies: at 10 µM.
Chain of Transcription initiation factor TFIID subunit 1 (P21675 whole entry): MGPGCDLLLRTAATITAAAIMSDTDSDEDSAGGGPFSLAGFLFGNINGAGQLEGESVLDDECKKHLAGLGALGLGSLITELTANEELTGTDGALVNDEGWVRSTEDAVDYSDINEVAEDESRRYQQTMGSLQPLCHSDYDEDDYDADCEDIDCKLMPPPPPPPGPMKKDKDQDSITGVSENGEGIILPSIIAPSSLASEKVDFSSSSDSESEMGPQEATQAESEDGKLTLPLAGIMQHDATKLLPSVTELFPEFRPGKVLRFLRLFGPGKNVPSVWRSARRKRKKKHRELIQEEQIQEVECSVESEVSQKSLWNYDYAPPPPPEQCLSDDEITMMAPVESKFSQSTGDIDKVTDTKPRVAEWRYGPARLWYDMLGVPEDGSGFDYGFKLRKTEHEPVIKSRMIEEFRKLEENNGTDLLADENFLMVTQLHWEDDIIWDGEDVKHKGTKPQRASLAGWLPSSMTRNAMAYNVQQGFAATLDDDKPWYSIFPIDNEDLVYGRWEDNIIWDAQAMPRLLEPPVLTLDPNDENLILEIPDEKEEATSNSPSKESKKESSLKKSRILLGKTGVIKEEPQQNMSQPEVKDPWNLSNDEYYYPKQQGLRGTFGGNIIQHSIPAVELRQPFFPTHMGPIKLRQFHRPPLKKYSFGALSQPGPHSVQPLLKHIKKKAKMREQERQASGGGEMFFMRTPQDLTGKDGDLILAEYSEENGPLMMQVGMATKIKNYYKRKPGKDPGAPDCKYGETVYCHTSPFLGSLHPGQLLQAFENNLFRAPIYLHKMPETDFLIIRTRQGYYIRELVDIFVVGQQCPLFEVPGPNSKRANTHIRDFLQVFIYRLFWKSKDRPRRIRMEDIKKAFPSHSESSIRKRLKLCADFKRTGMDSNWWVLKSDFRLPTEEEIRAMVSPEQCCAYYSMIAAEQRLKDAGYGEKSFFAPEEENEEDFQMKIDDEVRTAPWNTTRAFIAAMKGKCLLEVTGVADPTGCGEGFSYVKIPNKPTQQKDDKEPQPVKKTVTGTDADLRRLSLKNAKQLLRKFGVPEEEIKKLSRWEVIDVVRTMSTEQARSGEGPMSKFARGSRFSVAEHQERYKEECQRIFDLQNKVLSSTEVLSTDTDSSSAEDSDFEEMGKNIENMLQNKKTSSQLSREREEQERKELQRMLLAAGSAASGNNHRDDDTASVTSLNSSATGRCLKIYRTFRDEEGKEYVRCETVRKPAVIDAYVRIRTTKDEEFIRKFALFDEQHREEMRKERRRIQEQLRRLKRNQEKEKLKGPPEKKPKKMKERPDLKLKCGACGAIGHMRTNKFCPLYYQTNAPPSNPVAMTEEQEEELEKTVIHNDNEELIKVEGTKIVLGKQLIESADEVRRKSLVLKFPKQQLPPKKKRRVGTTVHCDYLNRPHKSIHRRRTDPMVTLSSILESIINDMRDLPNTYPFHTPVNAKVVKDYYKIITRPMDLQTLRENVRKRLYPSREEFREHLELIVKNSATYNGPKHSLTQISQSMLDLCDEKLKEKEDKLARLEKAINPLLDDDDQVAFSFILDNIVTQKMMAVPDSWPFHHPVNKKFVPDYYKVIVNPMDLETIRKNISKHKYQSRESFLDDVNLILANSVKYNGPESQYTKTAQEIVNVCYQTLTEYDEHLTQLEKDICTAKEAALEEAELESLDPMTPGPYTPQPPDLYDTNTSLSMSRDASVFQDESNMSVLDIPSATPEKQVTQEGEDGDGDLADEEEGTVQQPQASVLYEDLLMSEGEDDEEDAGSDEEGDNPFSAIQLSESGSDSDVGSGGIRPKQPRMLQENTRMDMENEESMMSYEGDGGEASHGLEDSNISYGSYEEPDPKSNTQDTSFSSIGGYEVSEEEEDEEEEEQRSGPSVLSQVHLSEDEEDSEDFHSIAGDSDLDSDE
The target of test [15] is Bromodomain-containing protein 9 (Homo sapiens) (UniProt Q9H8M2). The experiment in a line: Selectivity interaction (Bromodomain panel (DSF assay)) EUB0000004c BRD9.
Chain of Bromodomain-containing protein 9 (Homo sapiens) (Q9H8M2 whole entry, canonical isoform): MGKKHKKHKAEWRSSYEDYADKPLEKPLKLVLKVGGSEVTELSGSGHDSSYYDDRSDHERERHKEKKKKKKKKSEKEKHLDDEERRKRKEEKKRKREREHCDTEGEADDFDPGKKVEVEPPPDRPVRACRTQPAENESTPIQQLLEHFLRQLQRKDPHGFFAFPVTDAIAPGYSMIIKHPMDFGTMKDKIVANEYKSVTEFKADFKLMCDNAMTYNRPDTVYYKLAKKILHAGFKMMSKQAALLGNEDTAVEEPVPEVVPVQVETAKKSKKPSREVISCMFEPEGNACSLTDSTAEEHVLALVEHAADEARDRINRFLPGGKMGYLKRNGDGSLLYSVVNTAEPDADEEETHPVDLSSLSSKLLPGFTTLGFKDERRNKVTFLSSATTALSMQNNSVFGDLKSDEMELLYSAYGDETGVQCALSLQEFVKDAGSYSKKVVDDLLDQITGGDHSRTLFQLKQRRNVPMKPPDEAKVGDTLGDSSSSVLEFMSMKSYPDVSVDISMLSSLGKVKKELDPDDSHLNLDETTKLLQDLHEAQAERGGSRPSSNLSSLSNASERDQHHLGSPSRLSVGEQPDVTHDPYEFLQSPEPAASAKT
In test [16] the target is T6, Phosphatidylinositol 4,5-bisphosphate 3-kinase catalytic subunit delta isoform (Homo sapiens) (UniProt O00329).
T6 sequence (whole entry): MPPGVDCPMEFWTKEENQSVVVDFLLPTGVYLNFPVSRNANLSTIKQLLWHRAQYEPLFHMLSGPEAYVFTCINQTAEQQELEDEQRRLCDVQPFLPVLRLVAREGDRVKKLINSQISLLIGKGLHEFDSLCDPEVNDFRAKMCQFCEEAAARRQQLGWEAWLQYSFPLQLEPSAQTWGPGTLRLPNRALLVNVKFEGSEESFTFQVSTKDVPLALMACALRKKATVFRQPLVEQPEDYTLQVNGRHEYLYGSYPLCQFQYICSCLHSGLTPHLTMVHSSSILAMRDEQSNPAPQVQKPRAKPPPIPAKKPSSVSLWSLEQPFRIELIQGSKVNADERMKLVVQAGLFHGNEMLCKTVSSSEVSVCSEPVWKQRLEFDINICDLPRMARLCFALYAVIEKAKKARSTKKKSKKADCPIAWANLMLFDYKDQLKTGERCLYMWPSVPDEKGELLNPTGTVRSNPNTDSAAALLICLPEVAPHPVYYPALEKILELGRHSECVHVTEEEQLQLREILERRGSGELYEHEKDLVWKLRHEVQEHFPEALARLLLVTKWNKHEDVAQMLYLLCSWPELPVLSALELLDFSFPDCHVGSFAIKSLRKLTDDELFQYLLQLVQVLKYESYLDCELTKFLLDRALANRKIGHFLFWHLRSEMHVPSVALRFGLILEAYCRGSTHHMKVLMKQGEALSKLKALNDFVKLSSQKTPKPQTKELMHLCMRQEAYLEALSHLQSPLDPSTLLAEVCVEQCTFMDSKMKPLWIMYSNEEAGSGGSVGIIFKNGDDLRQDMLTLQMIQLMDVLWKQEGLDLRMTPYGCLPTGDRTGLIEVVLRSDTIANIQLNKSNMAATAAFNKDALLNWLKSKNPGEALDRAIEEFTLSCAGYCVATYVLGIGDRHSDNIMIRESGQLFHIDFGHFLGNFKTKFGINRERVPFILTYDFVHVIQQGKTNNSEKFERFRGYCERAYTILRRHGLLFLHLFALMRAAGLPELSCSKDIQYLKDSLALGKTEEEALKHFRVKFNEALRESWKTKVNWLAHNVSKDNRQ
The experiment in a line: Selectivity interaction (KinomeScan (DiscoverX)) EUB0000709a PIK3CD. To be noted: at 100 nM.

For test [17], the target named is cAMP-dependent protein kinase catalytic subunit alpha (Homo sapiens, UniProt P17612). Description: Selectivity interaction (KinomeScan (DiscoverX)) EUB0000709a PRKACA. The following applies: at 100 nM.
The target in test [18] is Epidermal growth factor receptor (Homo sapiens, UniProt P00533). Description: Selectivity interaction (KinomeScan (DiscoverX)) EUB0000709a EGFR. The following applies: at 100 nM.

Experimental findings from ChEMBL document CHEMBL5212743, “Selectivity Literature for EUbOPEN Chemogenomics Library wave 3” (2023) are described below.

Chain of Mitogen-activated protein kinase kinase kinase kinase 2 (Homo sapiens) (Q12851 whole entry): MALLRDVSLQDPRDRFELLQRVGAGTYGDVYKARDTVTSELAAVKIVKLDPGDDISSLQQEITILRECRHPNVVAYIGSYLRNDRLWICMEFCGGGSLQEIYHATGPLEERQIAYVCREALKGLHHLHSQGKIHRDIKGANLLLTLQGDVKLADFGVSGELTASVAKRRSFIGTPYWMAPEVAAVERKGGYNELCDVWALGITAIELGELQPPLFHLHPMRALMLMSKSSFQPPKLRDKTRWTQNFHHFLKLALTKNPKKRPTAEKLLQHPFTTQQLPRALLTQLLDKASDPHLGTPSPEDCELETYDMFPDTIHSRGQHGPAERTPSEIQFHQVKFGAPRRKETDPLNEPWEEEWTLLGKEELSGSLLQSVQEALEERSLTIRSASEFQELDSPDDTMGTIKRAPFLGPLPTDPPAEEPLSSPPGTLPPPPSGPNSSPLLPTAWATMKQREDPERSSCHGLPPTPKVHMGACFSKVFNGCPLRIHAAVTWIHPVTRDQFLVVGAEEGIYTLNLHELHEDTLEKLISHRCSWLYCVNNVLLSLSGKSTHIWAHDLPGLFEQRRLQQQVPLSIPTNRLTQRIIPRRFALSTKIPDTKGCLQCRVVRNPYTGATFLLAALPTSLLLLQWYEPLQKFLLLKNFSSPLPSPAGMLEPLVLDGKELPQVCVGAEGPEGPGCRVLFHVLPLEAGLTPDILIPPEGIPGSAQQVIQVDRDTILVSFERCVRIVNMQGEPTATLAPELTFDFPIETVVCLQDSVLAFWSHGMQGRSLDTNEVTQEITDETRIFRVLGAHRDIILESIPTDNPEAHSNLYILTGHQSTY

Regarding `C[C@]1(O)C[C@@H](c2nc(-c3ccc4ccc(-c5ccccc5)nc4c3)c3c(N)nccn32)C1`, the % of inhibition was 99% in test [1] and 86% in [2].

`C[C@H](NC(=O)Nc1cc2[nH]ncc2c(CO)n1)c1ccccn1` came in with a % of control in test [3] of 17.6%.

For `CN(C)c1ncnc(-c2ccc3nc(Nc4cc(CN5CCN(C(=O)CC(F)(F)F)CC5)ccn4)[nH]c3c2)c1Cl`, the % of control is 15% in test [4]; 13% in [5]; 4.2% in test [6]; 15% in test [7]; 7% in test [8]; 1.8% in test [9].

Consider `COc1cc(-c2cn(C)c(=O)c3cnccc23)c(OC)cc1CN(C)C`, for which the % of control in test [10] came to 0%; in test [11] it was 7.2%; in [14] it was 8.4%. In addition, the dTm in test [12] stood at 6.47 K; in [13] it was 5.61 K; in test [15], 9.21 K.

With `Cn1cc(Cl)c2c(Oc3c(F)cc(Nc4cc(Cl)nc(N)n4)cc3F)ccnc21`, the % of control in [16] was found to be 51%; in [17] it was 28%; in test [18], 52%.
